{
  "source": "patent US20130158014A1",
  "about": "“METHOD FOR TREATING DISEASES ASSOCIATED WITH ALTERATIONS IN CELLULAR INTEGRITY USING RHO KINASE INHIBITOR COMPOUNDS” (priority 2008, published 2013)",
  "key": {"LPS-challenged mice [1]": {"tested_on": "LPS-challenged mice", "test": "LPS-induced neutrophilia assay", "assay_type": "in vivo, mouse", "conditions": "intratracheal 0.5-50 μmol/kg one hour prior to LPS challenge; BALF four hours after; FIG. 12", "method": "(§1) Male BALB/c mice, approximately 19 to 21 grams, were ordered from Charles River Laboratories (Raleigh, N.C.). All animals were challenged with aerosolized LPS (10 μg/ml) for 25 minutes on study day 0. LPS aerosol was generated using an Aerogen Aeroneb nebulizer and controller providing a flow of 400 μl/min and a particle size of 2-4 μm MMAD. Rolipram was administered i.p at 20 mg/kg. […] Total cell counts were determined using the Coulter Counter. For differential evaluations, BALF was centrifuged and cytospin slides prepared and stained […]. Manual leukocyte counts were then completed on 200 cells. The final concentration of individual leukocyte cell types per ml of BALF was determined by multiplication of the relative percentage of individual leukocytes with the total amount of cells/ml of BALF fluid. The concentration of IL-1β in the BALF samples was determined using commercially available Bio-plex kits (Bio-Rad)."}, "[2]": {"tested_on": "ova-sensitized, ova-challenged mice", "test": "Prevention of airway hyperreactivity (Penh, methacholine) in mouse ovalbumin model", "assay_type": "in vivo", "method": "The anti-inflammatory dosing paradigm consists of dosing the animals once a day starting on day 27 and finishing on either day 30 or 31 (1 hr prior to the aerosolized ovalbumin challenges on days 28 to 30) but not on day 32 when hyperreactivity evaluation occurs. […] Exposure to the methacholine doses consisted of a 3 minute period during which a nebulizer was aerosolizing the methacholine and an additional 3 minute period following the cessation of nebulization. […] Enhanced pause (Penh), a unitless index of airway hyperreactivity, is derived from the expiratory side of the respiratory waveform measured via the plethysmograph and is used as an indirect measure of airway resistance and hyperreactivity. […] Following the methacholine dose response, BALF was collected and all animals were anesthetized, bled and euthanized. […] The Penh value at each of the dose levels of methacholine represents the 6-minute average response. Change from baseline (CFB) in Penh was calculated at each methacholine dose and the area under the curve (AUC) for these CFB values was calculated using the trapezoidal rule. This same approach was applied for each mouse across multiple experiments. […] Data from equal experimental conditions across experiments performed on different days were pooled for statistical analysis and data reporting. […] A random intercept for each experiment was assumed to account for possible similarities of the results obtained from a given experiment (i.e., as a “blocking effect”). […] For FIG. 9, linear AUC values from compound treated mice were reported as a percent of linear AUC values from vehicle-treated ovalbumin-sensitized/ovalbumin-challenged (asthmatic) mice."}, "[3]": {"tested_on": "ova-sensitized, ova-challenged mice", "test": "Mouse ovalbumin sensitization model: eosinophils in BALF", "assay_type": "in vivo", "method": "(§2) Male BALB/c mice were ordered from Charles River Laboratories (Raleigh, N.C.). The animals were approximately 19 to 21 grams at time of receipt. Upon arrival, the animals were randomized into groups of five males per cage and assigned to a dosing group. Animals were quarantined for 7 days under test conditions. They were observed daily for general health status and ability to adapt to the water bottles. Animals were sensitized on day 0 and 14 of study by an intraperitoneal injection with 20 μg of ovalbumin (ova) and 2.0 mg aluminum hydroxide (alum) which initiates the development of a specific T-helper (Th) cells type 2 resulting in asthmatic animals (denoted as Ova in the figures). One group of animals received an injection of saline to use as control animals (denoted as normal in the figures). All animals were challenged with aerosolized 1% ova once daily for 25 minutes on days 28, 29, and 30 (Zosky, et al. Respiratory Research. 2004; 5:15). Aerosol challenge consists of using an Aerogen Aeroneb nebulizer and controller with a particle size of 4-6 μm mass median aerodynamic diameter (MMAD) with a distribution of 400 μl per minute. This aerosol challenge is necessary to target the Th2-driven allergic inflammation in the lower airways. […]\n(§3) Bronchoalveolar lavage fluid (BALF) was collected by infusing 3.0 ml of saline with 10% fetal calf serum into the lungs via the trachea and then withdrawing the fluid. The total amount of cells/ml of BALF fluid was determined via manual cell count on hemocytometer. The BALF was centrifuged, supernatant removed and analyzed for cytokine concentrations as described below, and cell pellet reconstituted in 500 μL of fluid. […] Following Hema3 stain, relative percentages of individual leukocytes were determined on a 200 cell count for each sample. The final concentration of individual leukocyte cell types per ml of BALF was determined by multiplication of the relative percentage of individual leukocytes with the total amount of cells/ml of BALF fluid."}, "LPS-challenged mice [4]": {"tested_on": "LPS-challenged mice", "test": "LPS-induced cytokine production assay (IL-1β in BALF)", "assay_type": "in vivo, mouse", "conditions": "intratracheal, one hour prior to LPS challenge; BALF four hours after; FIG. 13", "method": "as §1"}, "[5]": {"test": "Rat oral pharmacokinetics (plasma)", "assay_type": "in vivo", "conditions": "rat oral PK, mean n = 3 rats, 20-30 μmmol/kg", "protocol": "Plasma (EDTA K2 anticoagulant) was collected from male, cannulated, CD Sprague Dawley rats to determine the pharmacokinetics of formulations containing compound inhibitors of Rho kinase. Each animal was dosed orally with a 4 ml/kg solution or suspension of each test compound in 10 mM acetate buffered saline, pH 4.5 at a final concentration range of 20-30 μmmol/kg. Blood was collected at 0.25, 0.5, 1, 2, 4, 6, 8, and 24 hours. Plasma samples were assayed for the concentration of the test compound using an on-line, solid phase extraction LC/MS/MS analysis system.\nSamples were analyzed on a QSTAR Elite, hybrid quadrupole time-of-flight mass spectrometer (Applied Biosystems, Framingham, Mass.) coupled with a Symbiosis Pharma integrated, on-line SPE-HPLC system (Spark Holland Inc., Plainsboro, N.J.). Analyst QS 2.0 software was used for instrument control, data acquisition and processing. […] Mobile Phase A consisted of 0.1% ammonium hydroxide in water and Mobile Phase B consisted of 0.1% formic acid in acetonitrile. Pharmacokinetic analyses were performed using WinNonlin software version 5.2 (Pharsight Corporation, Mountain View, Calif.).\nAs determined from the plasma concentration versus time curves, the time to peak and peak exposure are represented by the values Tmax and Cmax, respectively. The AUC values (nM*hr) shown were calculated as the areas under the plasma concentration versus time curves from time zero through the time of the last observable value and represent the total exposure of the compound over the course of the study. Half-life values or the amount of time required for the plasma levels of the compound to decline to half the initial value are represented as t1/2."}, "murine eosinophils": {"tested_on": "murine eosinophils", "test": "Murine eosinophil chemotaxis (eotaxin-induced)", "assay_type": "cell-based, mouse", "conditions": "10 nM eotaxin challenge, one hour; FIG. 10", "method": "Bronchoalveolar lavage was collected from ovalbumin sensitized and challenged mice in a volume of 2.5 mL lavage buffer. The lavage buffer was 0.9% saline with 10% fetal bovine serum. The pooled lavages were maintained on ice until use. The murine eosinophils were isolated using MACS cell separation (Miltenyi Biotech) by depletion of B cells and T cells by positive selection following incubation with antibody conjugated magnetic beads specific for CD45-R (B220) and CD90 (Thy 1.2), which bind B cells and T cells, respectively.\nEosinophil chemotaxis was assessed using a modified Boyden Chamber (Neuroprobe, 96-well) with a 5 μm pore membrane. The ability of the tested compounds to block chemotaxis induced by a 10 nM eotaxin challenge (mouse) or 1 nM eotaxin challenge (human) during one hour incubation at 37° C. with 5% CO2 was assessed. Chemotaxis was quantified via microscopy by counting the number of migrated cells in at least 3 view fields per treatment. […] FIG. 11 demonstates that chemotaxis was induced by eotaxin in human eosinophils."}, "[6]": {"tested_on": "ova-sensitized, ova-challenged mice", "test": "Mouse ovalbumin sensitization model: cytokines (IL-5, Eotaxin, IL-13) in BALF", "assay_type": "in vivo", "conditions": "oral on days 27 to 31", "method": "as §2, with “5:15).” for “5:15). Aerosol challenge consists of using an Aerogen Aeroneb nebulizer and controller with a particle size of 4-6 μm mass median aerodynamic diameter (MMAD) with a distribution of 400 μl per minute. This aerosol challenge is necessary to target the Th2-driven allergic inflammation in the lower airways.”\nas §3\nThe concentrations of cytokines in the BALF samples were determined using commercially available Bio-plex kits (Bio-Rad) for the detection of mouse IL-5, IL-13, and Eotaxin. The analysis of cytokine levels was measured using the Bio-Plex 200 (Bio-Rad) system according to the manufacturer's instructions."}, "human eosinophils": {"tested_on": "human eosinophils", "test": "Human eosinophil chemotaxis (eotaxin-induced)", "assay_type": "cell-based", "conditions": "1 nM eotaxin challenge, one hour; FIG. 11", "description": "Peripheral blood from healthy human volunteers was collected and the PMNs separated via Ficoll-paque density centrifugation followed by hypotonic lysis of the red blood cells. Subsequently, the human eosinophils were isolated from the cell suspension via StemCell Technologies Human Eosinophil Enrichment kit (Cat. No 19256) according to the manufacturer's recommendations. Briefly, unwanted cells were specifically labeled with dextran-coated magnetic nanoparticles using bispecific Tetrameric Antibody Complexes (TAC) directed against cell surface antigens on human blood cells: […] The unwanted cells are then separated from the unlabelled eosinophils using the EasySep® magnetic isolation procedure. […] FIG. 11 demonstates that chemotaxis was induced by eotaxin in human eosinophils."}},
  "data": [
    {"smiles": "CS(=O)(=O)Nc1cccc(CN2CCC[C@H](Nc3ccc4[nH]ncc4c3)C2)c1", "note": "[Compound 1.091]", "values": [
      {"measurement": "pulmonary neutrophilia influx", "setting": "LPS-challenged mice [1]", "result": "significant reduction"},
      {"measurement": "airway hyperreactivity", "setting": "[2]; intratracheal once a day, days 27 to 30, FIG. 9", "result": "prevention of airway hyperreactivity"},
      {"measurement": "eosinophils in BALF", "setting": "[3]; dosed i.t. once a day, day 27 to day 30, FIG. 5", "result": "reduction of eosinophils"},
      {"measurement": "IL-1β in BALF", "setting": "LPS-challenged mice [4]", "result": "reduction"},
      {"measurement": "AUC (0-last)", "setting": "[5]", "result": "BLQ"},
      {"measurement": "Cmax", "setting": "[5]", "result": "BLQ"},
      {"measurement": "Tmax", "setting": "[5]", "result": "BLQ"},
      {"measurement": "Vz_F", "setting": "[5]", "result": "BLQ"},
      {"measurement": "t½", "setting": "[5]", "result": "BLQ"}
    ]},
    {"smiles": "CS(=O)(=O)Nc1cccc(CN2CC[C@@H](Nc3cccc4cnccc34)C2)c1", "note": "[Compound 2.038]", "values": [
      {"measurement": "murine eosinophil chemotactic response", "setting": "murine eosinophils", "result": "inhibited"},
      {"measurement": "airway hyperreactivity to methacholine on Day 32", "setting": "[2]; oral 15 μMol/kg once a day, days 27 to 31", "result": "prevention of airway hyperreactivity"},
      {"measurement": "concentration of IL-5 in BALF", "setting": "[6]; FIG. 6", "result": "reduced levels"},
      {"measurement": "concentration of Eotaxin in BALF", "setting": "[6]; FIG. 7", "result": "reduced levels"},
      {"measurement": "concentration of IL-13 in BALF", "setting": "[6]; FIG. 8", "result": "reduced levels"},
      {"measurement": "eosinophils per ml of BALF", "setting": "[3]; dosed orally once a day, day 27 to day 31, FIG. 4", "result": "reduced"},
      {"measurement": "human eosinophil chemotactic response", "setting": "human eosinophils", "result": "inhibited"}
    ]}
  ]
}
